Measurements from patent US20080207614A1, “QUINAZOLINE DERIVATIVES FOR THE TREATMENT AND PREVENTION OF DIABETES AND OBESITY” (SK CHEMICALS CO., LTD., priority 2004, published 2008).

Legend:
C2C12 muscle cells = assay: Analysis of glucose absorption (2-deoxyglucose) in differentiated C2C12 muscle cells; assay type: cell-based; conditions: test materials 10 μM, times relative to control group
Method in brief: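 Uptake of 0.2 μCi 2-deoxyglucose over 20 min, counted radiometrically in lysed cells. Before tracer, compounds (10 μM) were applied for 30 min to C2C12 cells differentiated 6 days in 1% serum and equilibrated 3 h in 5 mM glucose KRB.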

AMPK = assay: Measurement of AMPK activity by Western blot in C2C12 cells; assay type: cell-based; design: key to AMPK activity (degree of phosphorylation of serine-79 and threonine-172): fold increase in threonine-172 phosphorylation; AMPK activity (degree of phosphorylation of serine-79): unit not given here; conditions: 10 μM for 50 minutes; for AMPK activity (degree of phosphorylation of serine-79 and threonine-172): no superscript: Western blot of serine-79 and threonine-172 phosphorylation; for AMPK activity (class: degree of phosphorylation of threonine-172): strong/mild/weak; for AMPK activity (degree of phosphorylation of serine-79): footnote a: Western blot of serine-79 phosphorylation
Method in brief: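 Western blot readout of AMPK Thr-172 and ACC Ser-79 phosphorylation, normalised against ERK, served as the activity measure. Cells were C2C12 after differentiation, treated 50 minutes with 10 μM test material. Grading by Thr-172 increase: ≥3-fold strong, 1-3-fold mild, <1-fold weak.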

| Structure (SMILES) | Glucose absorption (C2C12 muscle cells) | AMPK activity (degree of phosphorylation of serine-79 and threonine-172) (AMPK) | AMPK activity (class: degree of phosphorylation of threonine-172) (AMPK) | AMPK activity (degree of phosphorylation of serine-79) (AMPK) |
| --- | --- | --- | --- | --- |
| C1=C(CCNc2nc(-c3ccccc3)nc3ccccc23)CCCC1 [Compound 131, (2-Cyclohex-1-enylethyl)-(2-phenylquinazolino-4-yl)-amine] | 2.3 | 1.8 | strong (“strong” means that the degree of phosphorylation of threonine-172 increased by 3 times or more) | – |
| CCSc1nc(NCCc2cccc(C(F)(F)F)c2)c2ccccc2n1 [Compound 12, (2-Ethylsulfanylquinazolino-4-yl)-[2-(3-trifluoromethyl-phenyl)ethyl]-amine] | 0.8 | – | – | 4.0^a |
| Fc1ccc(CCNc2nc(-c3ccccc3)nc3ccccc23)cc1F [Compound 128, [2-(3,4-Difluorophenyl)-ethyl]-(2-phenylquinazolino-4-yl)-amine] | 2.3 | 1.7 | strong (“strong” means that the degree of phosphorylation of threonine-172 increased by 3 times or more) | – |
| COc1ccc(CNc2nc(-c3cccs3)nc3ccccc23)cc1OC [Compound 355, (3,4-Dimethoxybenzyl)-(2-thiopenyl-2-ylquinazolino-4-yl)-amine] | 1.2 | 1.1 | – | – |
| CC1CCCC(Nc2nc(-c3ccccc3)nc3ccccc23)C1C (stereo not drawn) [Compound 143, (2,3-Dimethylcyclohexyl)-(2-phenylquinazolino-4-yl)-amine] | 2.3 | 2.4 | strong (“strong” means that the degree of phosphorylation of threonine-172 increased by 3 times or more) | – |
| CC(C)CC(C)Nc1nc(-c2ccccc2)nc2ccccc12 (stereo not drawn) [Compound 125, (1,3-Dimethylbutyl)-(2-phenylquinazolino-4-yl)-amine] | 2.8 | 1.8 | strong (“strong” means that the degree of phosphorylation of threonine-172 increased by 3 times or more) | – |
| COc1ccc(CNc2nc(C3CC3)nc3ccccc23)c(OC)c1 [Compound 390, (2-Cyclopropylquinazolino-4-yl)-(2,4-dimethoxybenzyl)-amine] | 1.1 | 3.8 | – | – |
| Brc1ccccc1CNc1nc(-c2ccccc2)nc2ccccc12 [Compound 155, (2-Bromobenzyl)-(2-phenylquinazolino-4-yl)-amine] | 2.7 | 1.3 | mild (“mild” means that the degree of phosphorylation of threonine-172 increased by 1 to 3 times) | – |
| CC(c1ccccc1)c1nc(NCc2ccc3c(c2)OCO3)c2ccccc2n1 (stereo not drawn) [Compound 374, Benzo[1,3]dioxol-5-ylmethyl-[2-(1-phenylethyl)-quinazolino-4-yl]-amine] | 1.1 | 1.9 | – | – |
| O=[N+]([O-])c1ccc2ncnc(Nc3ccccc3)c2c1 [Compound 13, (6-Nitro-quinazolino-4-yl)-phenylamine] | 0.7 | – | – | 4.2^a |
| COc1ccccc1CNc1nc(N2CCCC2)nc2ccccc12 [Compound 275, (2-Methoxybenzyl)-(2-pyrrolidino-1-ylquinazolino-4-yl)-amine] | 0.8 | 2.1 | – | – |
| CC(C)c1nc(NCCCCc2ccccc2)c2ccccc2n1 [Compound 180, (2-Isopropylquinazolino-4-yl)-(4-phenylbutyl)-amine] | 4.1 | 3.9 | strong (“strong” means that the degree of phosphorylation of threonine-172 increased by 3 times or more) | – |
| COc1ccc(COc2nc(-c3ccccc3)nc3ccccc23)c(OC)c1 [Compound 273, 4-(2,4-Dimethoxybenzyloxy)-2-phenylquinazoline] | 0.7 | 1.5 | – | – |
| c1ccc2c(NCc3ccc4c(c3)OCO4)nc(N3CCCC3)nc2c1 [Compound 307, Benzo[1,3]dioxol-5-ylmethyl-(2-pyrrolidino-1-ylquinazolino-4-yl)-amine] | 0.8 | 2.0 | – | – |
| COc1ccc(CNc2nc(-c3ccccc3)nc3ccccc23)c(OC)c1 [Compound 144, (2,4-Dimethoxybenzyl)-(2-phenylquinazolino-4-yl)-amine] | 1.3 | 2.1 | strong (“strong” means that the degree of phosphorylation of threonine-172 increased by 3 times or more) | – |
| CCCc1nc(NCc2cc(OC)cc(OC)c2)c2ccccc2n1 [Compound 398, (3,5-Dimethoxybenzyl)-(2-propylquinazolino-4-yl)-amine] | 1.4 | 7.8 | – | – |
| COc1cc(CNc2ncnc3ccccc23)cc(OC)c1OC [Compound 411, Quinazolino-4-yl-(3,4,5-trimethoxybenzyl)-amine] | 1.2 | 1.8 | – | – |
| COc1cc(OC)c(CNc2nc(C(C)c3ccccc3)nc3ccccc23)c(OC)c1 (stereo not drawn) [Compound 381, [2-(1-Phenylethyl)-quinazolino-4-yl]-(2,4,6-trimethoxybenzyl)-amine] | 1.2 | 4.0 | – | – |
| COc1cc(CNc2nc(-c3ccco3)nc3ccccc23)cc(OC)c1 [Compound 343, (3,5-Dimethoxybenzyl)-(2-furano-2-ylquinazolino-4-yl)-amine] | 1.3 | 0.8 | – | – |
| CCSc1nc(NCc2ccccc2)c2ccccc2n1 [Compound 22, Benzyl-(2-Ethylsulfanylquinazolino-4-yl)-amine] | 2.6 | – | strong (“strong” means that the degree of phosphorylation of threonine-172 increased by 3 times or more) | – |
| CN1CCN(c2nc(NCc3ccc4c(c3)OCO4)c3ccccc3n2)CC1 [Compound 310, Benzo[1,3]dioxol-5-ylmethyl-[2-(4-methylpiperazino-1-yl)-quinazolino-4-yl]-amine] | 0.9 | 1.6 | – | – |
| Clc1ccc(CCNc2nc(-c3ccccc3)nc3ccccc23)cc1 [Compound 123, [2-(4-chlorophenyl)-ethyl]-(2-phenylquinazolino-4-yl)-amine] | 2.1 | 2.3 | strong (“strong” means that the degree of phosphorylation of threonine-172 increased by 3 times or more) | – |
| FC(F)(F)c1cccc(CNc2nc(-c3ccccn3)nc3ccccc23)c1 [Compound 226, (2-Pyridino-2-ylquinazolino-4-yl)-(3-trifluoromethylbenzyl)-amine] | 1.9 | 4.3 | strong (“strong” means that the degree of phosphorylation of threonine-172 increased by 3 times or more) | – |
| Clc1cccc(CNc2nc(-c3ccccc3)nc3ccccc23)c1Cl [Compound 115, (2,3-Dichlorobenzyl)-(2-phenylquinazolino-4-yl)-amine] | 2.3 | 2.3 | strong (“strong” means that the degree of phosphorylation of threonine-172 increased by 3 times or more) | – |
| COc1cc(CNc2nc(C(C)C)nc3ccccc23)cc(OC)c1 [Compound 323, (3,5-Dimethoxybenzyl)-(2-isopropylquinazolino-4-yl)-amine] | 1.1 | 1.2 | – | – |
| COc1ccc(OC)c(CNc2nc(C(C)C)nc3ccccc23)c1 [Compound 326, (2,5-Dimethoxybenzyl)-(2-isopropylquinazolino-4-yl)-amine] | 1.2 | 2.9 | – | – |
| COc1ccc(CNc2nc(C(OC)c3ccccc3)nc3ccccc23)cc1 (stereo not drawn) [Compound 362, (4-Methoxybenzyl)-[2-(methoxyphenylmethyl)-quinazolino-4-yl]-amine] | 1.2 | 2.6 | – | – |
| COc1cc(CNc2nc(C3CC3)nc3ccccc23)cc(OC)c1OC [Compound 389, (2-Cyclopropylquinazolino-4-yl)-(3,4,5-trimethoxybenzyl)-amine] | 1.3 | 2.2 | – | – |
| c1ccc(-c2nc(NCc3ccccn3)c3ccccc3n2)cc1 [Compound 142, (2-Phenylquinazolino-4-yl)-pyridino-2-ylmethylamine] | 1.4 | 1.4 | mild (“mild” means that the degree of phosphorylation of threonine-172 increased by 1 to 3 times) | – |
| COc1ccc(OC)c(CNc2nc(-c3ccccc3)nc3ccccc23)c1 [Compound 147, (2,5-Dimethoxybenzyl)-(2-phenylquinazolino-4-yl)-amine] | 1.3 | 1.8 | strong (“strong” means that the degree of phosphorylation of threonine-172 increased by 3 times or more) | – |
